# Results: patent US20160279236A1, “USE OF RAPAMYCIN AS VACCINE ADJUVANT AND PREPARATION METHOD THEREFOR” (INSTITUT PASTEUR OF SHANGHAI, CHINESE ACADEMY OF SCIENCES, priority 2013, published 2016)
# “Also recorded” adds a separate entry of the source.
# Legend:
# [1] = test system: BMDMs; experiment: Real-time quantitative PCR of gene expression in LPS-stimulated BMDMs; assay type: cell-based, C57BL/6 mice; details: 100 nM rapamycin
# Experimental: Bone marrow stem cells of 6-8 weeks aged C57BL/6 mice were taken, and the cells are cultivated at 10^6 cells/mL cell density in bone marrow-derived macrophage (BMDM) differentiation medium (formulation of which was: RPMI 1640 complete medium added with 30% (v/v) L929 conditioned medium and 1% (v/v) pen/strep). After differentiation for 4 days, the old culture medium (comprising suspended cells) was removed and fresh BMDM differentiation medium was added. The adhered BMDMs were collected on the 7th day of differentiation and used in in vitro experiment.
# The BMDMs were pre-treated with 100 nM of rapamycin or DMSO for 1 hour, and then the cells were stimulated with 100 ng/ml LPS […]. The cells were collected at 1, 2, 4 and 8 hours, and were cryopreserved in a refrigerator at −80° C. for the extraction and preparation of RNA.
# TRIZOL (Invitrogen) method was used to extract RNA of BMDM, and Superscript™ III Reverse Transcriptase Kit (Invitrogen) was used to respectively reverse transcribe 1 μg RNA so as to synthesize the first-strand cDNA for Real-time quantitative PCR determine of gene expression levels. The primers for Real-time quantitative PCR are shown in table 1. ΔΔ method was used to calculate the relative expression level of the determined gene compared with GAPDH.
# [2] = test system: OVA-specific T cell responses and antibody responses; experiment: Ovalbumin immunization of mice with adjuvants: OVA-specific T cell and antibody responses; assay type: in vivo
# Experimental: 6-8 weeks aged mice were primarily immunized by the inventors using intraperitoneal injection method, wherein Ovalbumin (10 μg/mouse) was used as antigen and PBS (negative control), MPL (10 μg/mouse, positive control), rapamycin (100 μg/mouse), rapamycin (100 μg/mouse)+MPL (10 μg/mouse) as adjuvant respectively, and were immunized again with ovalbumin (10 μg/mouse, without adjuvant) at 3 weeks. […] After 48 hours, enzyme linked immunosorbent assay (ELISA) was used to determine the content of IFNγ in the supernatant.
# [3] = test system: immune response against HCV outer membrane protein E2; experiment: HCV E2 protein immunization with adjuvants: T cell and antibody responses; assay type: in vivo, C57BL/6 mice; details: E2 protein 20 μg/mouse; Alum 200 μg, MPL 10 μg, rapamycin 100 μg per mouse; IFNγ ELISA of E2-stimulated spleen cells, FIG. 7A
# Experimental: C57BL/6 mice were immunized using purified E2 protein (20 μg/mouse, bought from eEnzyme company, Cat No. HCV-E21b) as antigen in mixture with Alum (200 μg/mouse), MPL (10 μg/mouse), rapamycin (100 μg/mouse), MPL (10 µg/mouse)+rapamycin (100 μg/mouse) respectively, and after 4 weeks, were boosted by the same antigen+adjuvant program. 8 weeks after the secondary immunization, mice were immunized for one time with E2 protein (without MPL or rapamycin) (5 μg/mouse), and the mice were killed after 2 weeks. Spleen cells were taken to determine immune response of T cells (FIG. 7A), and serum was taken to determine antibody titers (FIG. 7B). The spleen cells (5×10^5 cells) were stimulated with 10 μg/ml of E2 protein. After 48 hours, the content of IFNγ in the supernatant was determined by enzyme linked immunosorbent assay (ELISA). […] Meanwhile, antibody response induced by the combination of rapamycin and MPL was also the best, which was better than MPL or alum alone (FIG. 7B).
# [4] = test system: BMDCs; experiment: IL-12 expression (ELISA) in BMDCs stimulated by Toll-like receptor agonists with or without rapamycin; assay type: cell-based, mouse; details: rapamycin 100 nM 1 hour
# Experimental: The present inventors have firstly studied the influence of rapamycin on IL-12 expression induced by a variety of Toll-like receptors agonist including polyI:C by in vitro experiments. Dendritic cells differentiated from mouse bone marrow cells (BMDCs differentiated for 7 days with 20 ng/ml GM-CSF and 10 ng/ml IL-4) were pre-treated with or without rapamycin (100 nM) for 1 hour, and stimulated by LPS (100 ng/ml), MPL (1 μg/ml), R848 (1 μg/ml) and polyI:C (20 μg/ml) respectively for 24 hours, and cell culture media were taken to determine the content of IL-12 by ELISA.
# [5] = 100 ng/ml LPS, during 4 hours of LPS stimulation, relative to GAPDH
# [6] = blood 1 week after secondary immunization, single adjuvants vs negative control, combination vs MPL alone
structure (smiles),measurement,setting,value
CO[C@H]1C[C@@H]2CC[C@@H](C)[C@@](O)(O2)C(=O)C(=O)N2CCCC[C@H]2C(=O)O[C@H]([C@H](C)C[C@@H]2CC[C@@H](O)[C@H](OC)C2)CC(=O)[C@H](C)/C=C(\C)[C@@H](O)[C@@H](OC)C(=O)[C@H](C)C[C@H](C)/C=C/C=C/C=C/1C [rapamycin],expression of IL-10,[1]; [5],inhibit the expression
same,transcriptional expression of IL-12a,[1]; [5],increased the transcriptional expression; also recorded: promote the transcript expression
same,transcriptional expression of IL-12b,[1]; [5],increased the transcriptional expression; also recorded: promote the transcript expression
same,transcriptional expression of IL-23a,[1]; [5],increased the transcriptional expression; also recorded: promote the transcript expression
same,transcription and expression of CXCL2,[1]; LPS,did not affect the transcription and expression
same,transcription and expression of TNFα,[1]; LPS,did not affect the transcription and expression
same,expression of CD40,[1]; upon stimulation of LPS,no remarkable influence
same,expression of CD80,[1]; upon stimulation of LPS,no remarkable influence
same,expression of CD86,[1]; upon stimulation of LPS,no remarkable influence
same,expression of PD-L1,[1]; upon stimulation of LPS,remarkably decreased the expression; also recorded: inhibit the expression
same,OVA-specific IgG1 antibody titers,[2]; [6],relatively moderate
same,OVA-specific IgG2b antibody titers,[2]; [6],relatively moderate; also recorded: enhanced
same,OVA-specific IgG2c antibody titers,[2]; [6],relatively moderate; also recorded: enhanced
same,OVA-specific CD8+ T cell responses,"[2]; mice i.p., ovalbumin 10 μg, MPL 10 μg, rapamycin 100 μg per mouse, IFNγ ELISA of splenic cells stimulated with OVA-1, 48 hours",relatively moderate; also recorded: enhanced
same,OVA-specific CD4+ (Th1) T cell responses,"[2]; mice i.p., ovalbumin 10 μg, MPL 10 μg, rapamycin 100 μg per mouse, IFNγ ELISA of splenic cells stimulated with OVA-II, 48 hours",relatively moderate; also recorded: enhanced
same,immune response of IFN-γ secreting T cells against HCV E2,[3],inferior effect
same,IL-12 expression induced by lipopolysaccharide,[4]; LPS 100 ng/ml 24 hours,enhance
same,IL-12 expression induced by MPL,[4]; MPL 1 μg/ml 24 hours,enhance; also recorded: effectively enhanced
same,IL-12 expression induced by R848,[4]; R848 1 μg/ml 24 hours,effectively enhanced
same,IL-12 expression induced by polyI:C,[4]; polyI:C 20 μg/ml 24 hours,effectively enhanced
